Measurements published in patent publication US6660767B2, “Coumarin compounds as microtubule stabilizing agents and therapeutic uses thereof” (The Regents of the University of California, priority 2001, dated 2003).
Entries after “also recorded” stand apart in the source; their conditions may differ. Read-outs that look alike come from different tables or passages of the source.

Tests used:
[1] = system: S. purpuratus embryos; assay: Inhibition of first cleavage (cell division) of sea urchin embryos; type: cell-based, Strongylocentrotus purpuratus; details: for inhibition of the first cleavage of S. purpuratus embryos: FIGS. 1-4; for IC50: Strongylocentrotus purpuratus, read-out: concentration required for half maximal inhibition of first cleavage
Protocol: (§1) Male and female Strongylocentrotus purpuratus or S. franciscanus were injected with 0.5 M KCl through the soft tissue of the oral surface into the coleomic cavity and were then cultured in filtered seawater by conventional methods in the art. See e.g. O'Brien, E. T., et al. (1989) Mol. Pharmacol. 35:635-642; and Jacobs, J. S. and L. Wilson (1986) Drugs Pharm. Sci. 27:481-493, which are herein incorporated by reference. Gametes were released into filtered seawater. The eggs were stirred and passed 3 times through a […] Nitex mesh (Tetko, Inc., Elmsford, N.Y.) to remove the jelly coating and then allowed to settle. The seawater was aspirated off and then the eggs were centrifuged for 4 minutes at 310 rpm. The eggs were resuspended at 1% (v/v) in filtered seawater and set aside. Fresh sperm were collected from the aboral surface of a male urchin. About 1 drop of concentrated sperm was collected into a test tube and 1 ml of seawater was added. A 1 ml aliquot of the sperm solution was added per 100 ml of suspended eggs and immediately mixed.
After 1 minute post-fertilization, about 1 ml of embryos were placed on a microscope slide and checked for percent fertilization under a 10× magnification with a light microscope. A visible fertilization membrane differentiates fertilized egg from the unfertilized. The fertilized embryos were then incubated with a coumarin compound no later than 5 minutes after initial fertilization. The embryos were incubated for about 2 hours at about 15° C. to about 17° C., or until the control embryos completed first division and were in the 2-cell stage. The amount of division was calculated in each test sample by counting the number of divided versus undivided embryos in a small sample of about 40 μL using the light microscope.
(§2) Quantitation of division was performed by counting the number of divided and nondivided embryos after the control embryos had progressed to the end of first cleavage (about 120 minutes after fertilization). […]

[2] = system: Lytechinus pictus embryos; assay: Inhibition of first cleavage of sea urchin embryos (dose-response); type: cell-based
[3] = target: tubulin (Bos taurus, UniProt P81947+Q6B856); assay: Turbidity (light scattering) polymerization assay with electron microscopy; type: biochemical, bovine
tubulin, sequence (Q6B856 whole entry): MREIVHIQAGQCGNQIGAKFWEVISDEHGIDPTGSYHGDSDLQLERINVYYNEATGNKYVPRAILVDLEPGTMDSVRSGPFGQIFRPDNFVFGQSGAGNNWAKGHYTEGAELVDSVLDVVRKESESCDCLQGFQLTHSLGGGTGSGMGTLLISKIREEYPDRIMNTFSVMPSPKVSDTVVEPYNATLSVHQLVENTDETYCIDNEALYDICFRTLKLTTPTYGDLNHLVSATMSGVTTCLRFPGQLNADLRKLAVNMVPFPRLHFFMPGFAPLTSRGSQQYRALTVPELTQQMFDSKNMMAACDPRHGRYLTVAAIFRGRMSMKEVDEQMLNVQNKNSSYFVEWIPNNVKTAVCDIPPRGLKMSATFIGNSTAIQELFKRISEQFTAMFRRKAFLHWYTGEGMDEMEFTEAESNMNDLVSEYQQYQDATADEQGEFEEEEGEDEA
tubulin, sequence (P81947 whole entry): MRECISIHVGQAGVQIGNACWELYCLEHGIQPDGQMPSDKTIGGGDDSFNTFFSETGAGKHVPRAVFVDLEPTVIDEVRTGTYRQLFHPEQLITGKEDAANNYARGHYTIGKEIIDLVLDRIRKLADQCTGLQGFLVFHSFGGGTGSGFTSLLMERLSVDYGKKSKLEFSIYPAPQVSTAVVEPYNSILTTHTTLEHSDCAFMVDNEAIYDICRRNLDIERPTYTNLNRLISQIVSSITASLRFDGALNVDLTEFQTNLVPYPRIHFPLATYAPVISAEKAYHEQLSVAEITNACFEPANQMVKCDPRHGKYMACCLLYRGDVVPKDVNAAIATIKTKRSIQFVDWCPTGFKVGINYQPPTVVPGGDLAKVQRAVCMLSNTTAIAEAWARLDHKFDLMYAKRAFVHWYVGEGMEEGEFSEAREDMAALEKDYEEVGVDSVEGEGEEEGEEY
Protocol: To determine the rate and extent of the ability of a test compound to promote or inhibit microtubule polymerization (change in turbidity) a coumarin compound is added to a cuvet comprising about 1 mg/ml microtubule protein. The cuvet is incubated at 37° C. for 45 minutes in a spectrophotometer equipped with a heating unit and the absorbance is measured at about 340 nm. The change in absorbance is measured at intervals of 45 seconds over the 45-minute period and compared to the absorbance change induced by 1 mM GTP.
Specifically, 1.2 mg/ml of microtubule protein was mixed with different concentrations of dicoumarol in 100 mM PIPES, 1 mM MgCl2, and 1 mM EGTA (100 mM PEM buffer), and 1 mM guanosine 5′-triphosphate. Microtubule polymerization was monitored at 37° C. by light scattering at 350 nm using a Gilford Response Spectrophotometer.
10 μl aliquots were taken from spectrophotometrically followed reaction mixtures obtained during the course of the turbidity/light scattering assays at 10, 20, and 45 minutes and applied to 200-mesh carbon coated, Formavar-treated, copper grids (Ted Pella, Inc., Redding, Calif.). The sample was followed by several drops of 0.5% uranyl acetate and excess was drained off with filter paper. The grids were then examined with a Zeiss model 10CA electron microscope.

[4] = system: sea urchin embryos; assay: Spindle microtubule and chromosome organization in sea urchin embryos (immunofluorescence, modified Balczon and Schatten); type: cell-based, S. franciscanas; details: 50 μM dicoumarol
Protocol: Sea urchin embryos prepared according to Example 1 were used to study the effect of coumarin compounds on spindle microtubule organization and chromosome organization using immunofluorescence microscopy with specific antibodies for tubulin and DAPI was used to image the chromatin. Two different sea urchin embryo assay protocols were used.
Fixation and staining of embryos for immunofluorescence microscopy were performed according to a modified method of Balczon and Schatten ((1983) Cell Motility 3:213-226, which is herein incorporated by reference). […]. After extraction for 45 minutes, the embryos were fixed for 6 minutes with −10° C. methanol. After methanol fixation, the cells were rinsed for 5 minutes in PBS and then 25 μl of anti-α-tubulin monoclonal antibody (1:100) in PBS comprising 2% bovine serum albumin was added.
The embryos were incubated at 37° C. for about 60 to about 75 minutes and rinsed for 20 minutes in PBS after which 25 μl of a secondary staining solution comprising fluoroscein isothiocynate (FITC) conjugated to an anti-mouse IgG (1:100 in PBS) and DAPI (10 μg/ml) was added. The embryos were then incubated for 60 minutes at 37° C. and then rinsed for 20 minutes in PBS. Coverslips were mounted onto the slides with a solution of Vectashield® (Vector Laboratories, Inc., Burlingame, Calif.) and sealed with nail polish. […]

[5] = system: S. franciscanus embryos; assay: Inhibition of first cleavage of sea urchin embryos (dose-response); type: cell-based
Protocol: as §1, with “Fresh sperm were collected from the aboral surface of a male urchin. About 1 drop of concentrated sperm was collected into a test tube and 1 ml of seawater was added. A 1 ml aliquot of the sperm solution was added per 100 ml of suspended eggs and immediately mixed.” left out
After 1 minute post-fertilization, about 1 ml of embryos were placed on a microscope slide and checked for percent fertilization under a 10× magnification with a light microscope. […] The amount of division was calculated in each test sample by counting the number of divided versus undivided embryos in a small sample of about 40 μL using the light microscope.
as §2

[6] = system: sea urchin embryos; assay: Cell cycle analysis: dicoumarol added at 10-minute intervals after fertilization; details: 50 μM dicoumarol added at 10-minute intervals; FIG. 5
Protocol: The ability of dicoumarol to block cells in mitosis, like a mitotic spindle poison, was examined. The first mitosis typically occurs between about 70 to about 90 minutes after fertilization and cytokinesis is usually complete at about 120 minutes, giving rise to two blastomeres.
Specifically, aliquots were designated T-10, T-20, . . . T-120.

SMILES: O=c1ccc2ccc(O)cc2o1 [7-hydroxycoumarin]
- inhibition of the first cleavage of S. purpuratus embryos [1]: inhibited the first cleavage
- IC50 ([1]; S. purpuratus embryos, first cleavage): ~40 µM

SMILES: O=c1ccc2ccccc2o1 [coumarin]
- inhibition of the first cleavage of S. purpuratus embryos [1]: inhibited the first cleavage

SMILES: O=c1oc2ccccc2c(O)c1Cc1c(O)c2ccccc2oc1=O [dicoumarol]
- dose-response curve of cleavage inhibition [2]: identical to those obtained using S. purpuratus
- microtubule formation by electron microscopy ([3]; 100 μM dicoumarol, polymerization prolonged to 45 minutes): microtubules were produced
- microtubule formation by electron microscopy ([3]; axonemal seeded microtubules, 20 μM dicoumarol): revealed actual microtubule structures
- microtubule formation by electron microscopy ([3]; polymerization for 10 and 20 minutes, no axonemes): No microtubules were formed
- rate and extent of polymerization of tubulin (turbidity) ([3]; tubulin 12 μM, dicoumarol 0 μM-80 μM, FIG. 9): increased the rate and extent of tubulin polymerization; also recorded: concentration-dependent increase
- chromosome organization [4]: disorganized chromosomes that had not congressed to the metaphase plate
- microtubules of mitotic spindles [4]: bipolar, but appeared to be longer and located outside an intact nuclear envelope
- dose-response curve of cleavage inhibition [5]: identical to those obtained using S. purpuratus
- inhibition of the first cleavage of S. purpuratus embryos [1]: inhibited the first cleavage
- concentration at which cell division was completely blocked ([1]; S. purpuratus embryos): ≥ 20 µM
- IC50 [1]: ~4 µM
- lysis or morphological changes of treated embryos ([1]; dicoumarol treated embryos): no lysis or morphological changes
- inhibition of first cleavage versus time of addition after fertilization [6]: rapidly declined when dicoumarol was added 90 minutes after fertilization; also recorded: blocked if added after metaphase (90 minutes)

SMILES: CC(=O)CC(c1ccccc1)c1c(O)c2ccccc2oc1=O (centres unmarked) [warfarin]
- inhibition of the first cleavage of S. purpuratus embryos [1]: inhibited the first cleavage
